These are literature values, as cited in patent US20120003325A1, “USE OF HELIUM-OXYGEN GAS MIXTURES FOR TREATING PULMONARY ARTERIAL HYPERTENSION” (BAYER SCHERING PHARMA AKTIENGESELLSCHAFT, priority 2008, published 2012).

The conditions of the series: oil-water mixture.

`[He]` [helium]: the “solubility relative to the solubility of oxygen or nitrogen” value was 30%.
